Assay [1] concerns the target T1, F876L mutant Androgen Receptor (AR-F876L) (Homo sapiens (Human), UniProt P10275, F877L). Kind of assay: LNCaP-AR-F876L AG reporter assay (agonist mode). The class given is cell-based. As to conditions: for EC50: read-out: LNCaP-AR-F876L AG pEC50 (converted); for Emax: read-out: LNCaP-AR-F876L AG MAX % Stim. In general terms: In a reporter assay the amount or activity of a reporter protein is the signal.

A further assay concerns rGABA-gated Cl− channel. Description: GABA-Gated Cl Channel Antagonist Radioligand Binding Assay. Further details: species or system rat. As to conditions: 10 μM single point, [35S]-TBPS, cerebral cortex membrane homogenates. The gist of the method:
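Values give percent inhibition of control specific […] (3 nM) binding at a single 10 μM compound concentration. Cerebral cortex membranes, 120 min, 22° C, phosphate buffer pH 7.4 with 500 mM NaCl; 20 μM picrotoxinin sets nonspecific binding; filtration and scintillation read-out.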

For assay [2], the target named is T2, wild-type Androgen Receptor (AR-wt) (Homo sapiens (Human), UniProt P10275). Kind of assay: LNCaP-AR-wt AG reporter assay (agonist mode). The class given is cell-based. As to conditions: for EC50: read-out: LNCaP-AR-wt AG pEC50 (converted); for Emax: read-out: LNCaP-AR-wt AG MAX % Stim.
Assay [3] addresses T2, wild-type Androgen Receptor (AR-wt). Description: LNCaP-AR-wt ANT reporter assay (antagonist mode). As to conditions: for IC50 / LNCaP-AR-wt ANT pIC50: pIC50 = −Log10(IC50 in Molar); for IC50: read-out: LNCaP-AR-wt ANT pIC50 (converted); for Emax: read-out: LNCaP-AR-wt ANT MAX % Inh. In kind it is cell-based.
The target in assay [4] is T1, F876L mutant Androgen Receptor (AR-F876L). Kind of assay: LNCaP-AR-F876L ANT reporter assay (antagonist mode). In kind it is cell-based. As to conditions: for IC50: read-out: LNCaP-AR-F876L ANT pIC50 (converted); for Emax: read-out: LNCaP-AR-F876L ANT MAX % Inh.
Setting [5] is: agonist mode, pEC50 = −Log10(EC50 in Molar).
The mark [6] stands for this setting: maximum % stimulation (agonist response) over the tested concentration range.
The mark [7] stands for this setting: maximum % inhibition of R1881 control response over the tested concentration range.
[8] abbreviates: antagonist mode, pIC50 = −Log10(IC50 in Molar).
Where [9] appears, read: agonist mode, maximum % stimulation over tested concentration range.
Setting [10] is: antagonist mode, maximum % inhibition of R1881 control response over tested concentration range.

T2 sequence (P10275 whole entry): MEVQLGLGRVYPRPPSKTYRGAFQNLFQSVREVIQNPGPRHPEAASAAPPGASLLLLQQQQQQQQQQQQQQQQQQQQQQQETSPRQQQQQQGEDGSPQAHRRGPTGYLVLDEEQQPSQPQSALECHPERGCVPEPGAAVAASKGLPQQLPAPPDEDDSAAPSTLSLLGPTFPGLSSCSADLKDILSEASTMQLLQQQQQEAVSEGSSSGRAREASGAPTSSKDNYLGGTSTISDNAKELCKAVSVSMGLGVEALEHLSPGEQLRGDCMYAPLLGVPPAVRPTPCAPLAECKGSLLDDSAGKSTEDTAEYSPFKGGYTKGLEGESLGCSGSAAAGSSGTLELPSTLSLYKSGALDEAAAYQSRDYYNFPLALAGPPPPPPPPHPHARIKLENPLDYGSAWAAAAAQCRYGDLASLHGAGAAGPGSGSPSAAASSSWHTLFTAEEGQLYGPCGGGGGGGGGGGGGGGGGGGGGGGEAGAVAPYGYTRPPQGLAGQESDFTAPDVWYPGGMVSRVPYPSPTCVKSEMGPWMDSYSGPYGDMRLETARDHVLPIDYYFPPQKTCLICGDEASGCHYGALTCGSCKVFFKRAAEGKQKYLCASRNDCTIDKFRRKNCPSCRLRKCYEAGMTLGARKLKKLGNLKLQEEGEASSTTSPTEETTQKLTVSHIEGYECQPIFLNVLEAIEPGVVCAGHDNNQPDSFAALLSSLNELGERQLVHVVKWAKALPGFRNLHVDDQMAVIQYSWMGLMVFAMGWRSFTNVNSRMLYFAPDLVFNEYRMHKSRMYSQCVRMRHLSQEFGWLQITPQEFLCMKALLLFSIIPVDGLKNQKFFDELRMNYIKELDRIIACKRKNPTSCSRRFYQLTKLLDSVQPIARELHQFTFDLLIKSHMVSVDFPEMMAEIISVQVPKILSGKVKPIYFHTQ
T1 sequence (P10275 whole entry F877L): as the sequence (P10275 whole entry) above, with F877L counted along it

With `COc1cc(N2C(=O)C3(CCC3)N(c3ccc(OC4CCNCC4)nc3)C2=S)cnc1C#N` [Cpd 75, 3-methoxy-5-[5-oxo-8-[6-(4-piperidyloxy)-3-pyridyl]-7-thioxo-6,8-diazaspiro[3.4]octan-6-yl]pyridine-2-carbonitrile], the EC50 in assay [1] (setting [5]) and in assay [2] (setting [5]) was more than 15.1 µM throughout. Besides, the Emax is 0.1% in assay [1] (setting [6]), 0.2% in assay [2] (setting [6]), 102% in assay [3] (setting [7]) and 101% in assay [4] (setting [7]). Further, in the assay on rGABA-gated Cl− channel, the “rGABA-gated Cl− channel % inh @10 μM” value is −32.5%. For the same molecule, the IC50 in assay [3] (antagonist mode) was 148 nM; in assay [4] (setting [8]), 89.1 nM.

Take `N#Cc1ncc(N2C(=O)C3(CCC3)N(c3ccc(OC4CCN(CC(F)(F)F)CC4)cc3)C2=S)cc1C(F)(F)F` [Cpd 40, 5-[5-oxo-7-thioxo-8-[4-[[1-(2,2,2-trifluoroethyl)-4-piperidyl]oxy]phenyl]-6,8-diazaspiro[3.4]octan-6-yl]-3-(trifluoromethyl)pyridine-2-carbonitrile]: the EC50 in assay [1] (setting [5]) and in assay [2] (setting [5]) was more than 15.1 µM each time. Also, the Emax in assay [1] (setting [6]) worked out at 1.5%; in assay [2] (setting [6]), 0.2%; in assay [3] (setting [7]) it was 97.6%; in assay [4] (setting [7]) it was 96%. For the same molecule, the “rGABA-gated Cl− channel % inh @10 μM” value in the assay on rGABA-gated Cl− channel was determined as 67.5%. Moreover, the IC50 in assay [3] (antagonist mode) was 537 nM; in assay [4] (setting [8]) it was 1000 nM.

For the molecule `N#Cc1ncc(N2C(=O)C3(CCC3)N(c3ccc(OC4CCN(CCF)CC4)nc3)C2=S)cc1C(F)(F)F` [Cpd 67, 5-[8-[6-[[1-(2-fluoroethyl)-4-piperidyl]oxy]-3-pyridyl]-5-oxo-7-thioxo-6,8-diazaspiro[3.4]octan-6-yl]-3-(trifluoromethyl)pyridine-2-carbonitrile], the EC50 in assay [1] (setting [5]) and in assay [2] (setting [5]) was more than 15.1 µM in each case. Besides, the Emax in assay [1] (setting [6]) came to 0.7%; in assay [2] (setting [6]), 0.4%; in assay [3] (setting [7]) it was 99.6%; in assay [4] (setting [7]) it was 97.4%. For the same molecule, in the assay with rGABA-gated Cl− channel, the “rGABA-gated Cl− channel % inh @10 μM” value was 53.4%. In addition, the figures for the IC50 in assay [3] (antagonist mode) and in assay [4] (setting [8]) were 42.7 nM and 46.8 nM, respectively.

For the molecule `CN1[C@@H]2CC[C@H]1C[C@H](Oc1ccc(N3C(=S)N(c4cnc(C#N)c(C(F)(F)F)c4)C(=O)C34CCC4)cc1)C2` [Cpd 52, 5-[8-[4-[[(1R,3s,5S)-8-methyl-8-azabicyclo[3.2.1]octan-3-yl]oxy]phenyl]-5-oxo-7-thioxo-6,8-diazaspiro[3.4]octan-6-yl]-3-(trifluoromethyl)pyridine-2-carbonitrile], the “LNCaP-AR-F876L AG pEC50” value in assay [1] (setting [5]) was less than 4.82. The Emax was 0.8% in assay [1] (setting [6]), 2.8% in assay [2] (setting [6]), 98.3% in assay [3] (setting [7]) and 98.9% in assay [4] (setting [7]). In addition, the “rGABA-gated Cl− channel % inh @10 μM” value in the assay on rGABA-gated Cl− channel was determined as 13.1%. Further, the “LNCaP-AR-wt AG pEC50” value in assay [2] (setting [5]) was less than 4.82. Further, the “LNCaP-AR-wt ANT pIC50” value in assay [3] (antagonist mode) amounted to 6.76. Further, in assay [4] (setting [8]), the IC50 is 43.7 nM.

For `N#Cc1ncc(N2C(=O)C3(CCC3)N(c3ccc4nn(CCO)cc4c3)C2=S)cc1Cl` [Cpd 162, 3-chloro-5-[8-[2-(2-hydroxyethyl)indazol-5-yl]-5-oxo-7-thioxo-6,8-diazaspiro[3.4]octan-6-yl]pyridine-2-carbonitrile], the EC50 in assay [1] (setting [5]) and in assay [2] (setting [5]) was more than 15.1 µM each time. The Emax in assay [1] (setting [6]) is 0%; in assay [2] (setting [6]) it was -0.1%; in assay [3] (setting [7]), 96.4%; in assay [4] (setting [7]), 99.2%. The “rGABA-gated Cl− channel % inh @10 μM” value in the assay with rGABA-gated Cl− channel is on record as 48.5%. The results for the IC50 in assay [3] (antagonist mode) and in assay [4] (setting [8]) were 324 nM and 158 nM, respectively.

`CN1CCC(Oc2ncc(N3C(=S)N(c4cnc(C#N)c(C(F)(F)F)c4)C(=O)C34CCC4)cn2)CC1` [Cpd 152, 5-[8-[2-[(1-methyl-4-piperidyl)oxy]pyrimidin-5-yl]-5-oxo-7-thioxo-6,8-diazaspiro[3.4]octan-6-yl]-3-(trifluoromethyl)pyridine-2-carbonitrile]: the EC50 in assay [1] (setting [5]) and in assay [2] (setting [5]) was more than 15.1 µM each time. Besides, the Emax in assay [1] (setting [6]) is 0.1%; in assay [2] (setting [6]), 0.2%; in assay [3] (setting [7]), 101%; in assay [4] (setting [7]), 99.9%. Moreover, the “rGABA-gated Cl− channel % inh @10 μM” value with rGABA-gated Cl− channel was found to be 15.1%. The “LNCaP-AR-wt ANT pIC50” value in assay [3] (antagonist mode) came to 6.38. Also, in assay [4] (setting [8]), the “LNCaP-AR-F876L ANT pIC50” value was 6.37.

For `C#CCN1CCC(Oc2ccc(N3C(=S)N(c4cnc(C#N)c(C(F)(F)F)c4)C(=O)C34CCC4)cc2)CC1` [Cpd 107, 5-[5-oxo-8-[4-[(1-prop-2-ynyl-4-piperidyl)oxy]phenyl]-7-thioxo-6,8-diazaspiro[3.4]octan-6-yl]-3-(trifluoromethyl)pyridine-2-carbonitrile], the EC50 in assay [1] (setting [5]) and in assay [2] (setting [5]) was more than 15.1 µM in each case. Further, the Emax in assay [1] (setting [6]) is 1.9%; in assay [2] (setting [6]) it was 0.5%; in assay [3] (setting [7]), 101%; in assay [4] (setting [7]), 97.5%. Also, in the assay with rGABA-gated Cl− channel, the “rGABA-gated Cl− channel % inh @10 μM” value amounted to 87.2%. Also, the IC50 is 22.9 nM in assay [3] (antagonist mode) and 24.5 nM in assay [4] (setting [8]).

For the molecule `N#Cc1ncc(N2C(=O)C3(CCC3)N(c3ccc(SC4CCNCC4)cc3)C2=S)cc1C(F)(F)F` [Cpd 240, 5-[5-oxo-8-[4-(4-piperidylsulfanyl)phenyl]-7-thioxo-6,8-diazaspiro[3.4]octan-6-yl]-3-(trifluoromethyl)pyridine-2-carbonitrile], the Emax was 0% in assay [1] (setting [9]), 1% in assay [2] (setting [9]), 106% in assay [3] (setting [10]) and 105% in assay [4] (setting [10]). Further, the EC50 in assay [1] (setting [5]) and in assay [2] (setting [5]) was more than 15.1 µM throughout. The “rGABA-gated Cl− channel % inh @10 μM” value in the assay on rGABA-gated Cl− channel is 44.7%. Moreover, the IC50 in assay [3] (antagonist mode) was 457 nM; in assay [4] (setting [8]), 224 nM.

`C#CCN1CCC(Oc2ccc(N3C(=S)N(c4cnc(C#N)c(C(F)(F)F)c4)C(=O)C34CCC4)cn2)CC1` [Cpd 104, 5-[5-oxo-8-[6-[(1-prop-2-ynyl-4-piperidyl)oxy]-3-pyridyl]-7-thioxo-6,8-diazaspiro[3.4]octan-6-yl]-3-(trifluoromethyl)pyridine-2-carbonitrile]: the EC50 in assay [1] (setting [5]) and in assay [2] (setting [5]) was more than 15.1 µM each time. Moreover, the Emax in assay [1] (setting [6]) came out at 0.7%; in assay [2] (setting [6]), 0.5%; in assay [3] (setting [7]), 101%; in assay [4] (setting [7]), 99.6%. In addition, in the assay on rGABA-gated Cl− channel, the “rGABA-gated Cl− channel % inh @10 μM” value is 98.9%. The values for the IC50 in assay [3] (antagonist mode) and in assay [4] (setting [8]) were 69.2 nM and 41.7 nM, respectively.

As for `N#Cc1ncc(N2C(=O)C3(CCC3)N(c3ccc(CN4CCNCC4)cc3)C2=S)cc1Cl` [Cpd 207, 3-chloro-5-[5-oxo-8-[4-(piperazin-1-ylmethyl)phenyl]-7-thioxo-6,8-diazaspiro[3.4]octan-6-yl]pyridine-2-carbonitrile], the Emax in assay [1] (setting [9]) turned out to be 0%; in assay [2] (setting [9]), 0%; in assay [3] (setting [10]), 101%; in assay [4] (setting [10]), 100%. For the same molecule, the EC50 in assay [1] (setting [5]) and in assay [2] (setting [5]) was more than 15.1 µM in each case. For the same molecule, in the assay with rGABA-gated Cl− channel, the “rGABA-gated Cl− channel % inh @10 μM” value is given as 27.9%. For the same molecule, the results for the IC50 in assay [3] (antagonist mode) and in assay [4] (setting [8]) were 407 nM and 380 nM, respectively.

With `COc1cc(N2C(=O)C3(CCC3)N(c3ccc4c(cnn4C4CCN(CCO)CC4)c3)C2=S)cnc1C#N` [Cpd 225, 5-[8-[1-[1-(2-hydroxyethyl)-4-piperidyl]indazol-5-yl]-5-oxo-7-thioxo-6,8-diazaspiro[3.4]octan-6-yl]-3-methoxy-pyridine-2-carbonitrile], the Emax in assay [1] (setting [9]) came out at 0.5%; in assay [2] (setting [9]), 0.4%; in assay [3] (setting [10]), 101%; in assay [4] (setting [10]), 100%. Further, the EC50 in assay [1] (setting [5]) and in assay [2] (setting [5]) was more than 15.1 µM throughout. Further, the “rGABA-gated Cl− channel % inh @10 μM” value in the assay with rGABA-gated Cl− channel came to 18.6%. Also, the IC50 in assay [3] (antagonist mode) is 339 nM; in assay [4] (setting [8]), 209 nM.

For the molecule `N#Cc1ncc(N2C(=O)C3(CCC3)N(c3ccc(OC4C5CCC4CNC5)cc3)C2=S)cc1C(F)(F)F` (stereo not drawn) [Cpd 138, 5-[8-[4-(3-azabicyclo[3.2.1]octan-8-yloxy)phenyl]-5-oxo-7-thioxo-6,8-diazaspiro[3.4]octan-6-yl]-3-(trifluoromethyl)pyridine-2-carbonitrile], the EC50 in assay [1] (setting [5]) and in assay [2] (setting [5]) was more than 15.1 µM in each case. For the same molecule, the Emax in assay [1] (setting [6]) was 0.1%; in assay [2] (setting [6]), -0.1%; in assay [3] (setting [7]), 103%; in assay [4] (setting [7]) it was 100%. For the same molecule, in the assay with rGABA-gated Cl− channel, the “rGABA-gated Cl− channel % inh @10 μM” value came to 35.6%. The IC50 in assay [3] (antagonist mode) was 427 nM; in assay [4] (setting [8]) it was 269 nM.

The record behind these values is US10981926B2 (Janssen Pharmaceutica NV, priority 2016, dated 2021).
